The values that follow come from US20110301233A1, “Novel Polyisoprenylated Benzophenone Derivatives from Garcinia paucinervis” (priority 2010, published 2011).

Holding throughout (assay type): cell-based
Assay [1] has as its system HeLa-C3 cells. Nature of the assay: Apoptosis-inducing effect: caspase-3 activation, YFP/CFP emission ratio (FRET biosensor) in HeLa-C3 cells. The following applies: for Apoptotic effect at 25 μM / Apoptotic effect at 50 μM / Apoptotic effect at 100 μM: 72 h. The protocol:
The biological activity of Compounds 1-4 was evaluated for apoptosis-inducing effects using genetically engineered HeLa-C3 cells that can produce a fluorescent biosensor capable of detecting caspase-3 activation. These cells emit a green light under normal growth conditions and change to a blue light when caspase-3 is activated during apoptosis to cleave the sensor protein inside the cells. This color change allows one to use a fluorescent plate reader to directly detect the activation level of caspase-3 in HeLa-C3 cells during the course of the compound treatment in a noninvasive way. Based on our previous test results, the emission ratio of YFP (yellow fluorescent protein)/CFP (cyanfluorescent proteins) is usually between 6 and 8 in normal cells, and this ratio will decrease to a value below 3 if a compound can activate caspase-3 and kill cancer cells. Therefore, any compound that can reduce the YFP/CFP emission ratio to a value below 3 is considered positive in activating apoptosis.
Bioassay: The bioassay method was described in our previous paper with some modifications. All the testing samples were dissolved in DMSO to make stock solutions. The concentration of each stock was at least 1000 times higher than the working concentration. HeLa-C3 cells, which can detect apoptotic cell death involving caspase activation, were cultured in minimum essential medium (MEM) containing 10% fetal bovine serum, 100 U/ml penicillin, […] streptomycin, in a 5% CO2 humidity incubator at 37° C. The sample well for apoptotic activity testing was prepared by seeding a well on a 96-well plate with 7500 HeLa-C3 cells suspended in 100 μl culture medium. After 12-16 h incubation, the old medium was removed and 100 μl freshly prepared culture medium containing the testing sample at a certain working concentration was added to both the sample well and the corresponding background well. Culture medium containing 0.1% DMSO was the negative control while 500 nM paclitaxel was the positive control. After that, the plate was read repeatedly by a Perkin-Elmer Victor reader with excitation wavelength at 440±10 nm and emission wavelength at 486±8 nm for CFP (cyan fluorescent protein) and 535±8 nm for YFP (yellow fluorescent protein) at indicated time points. The data acquisition duration was up to 72 h. The YFP/CFP emission ratio was then calculated. The background fluorescence was measured from the wells containing only medium. After subtracting the background fluorescence from the recorded signal, net YFP and CFP readings were obtained. In this paper, Y/C emission ratio is used to represent the effect of FRET, which is equal to the net YFP reading divided by the net CFP reading from the same well. If YFP/CFP emission ratio was reduced below 3, the testing sample was considered as a good apoptotic inducer at that concentration. All samples were tested in triplicate. The whole experiment was repeated for three times.

The subject of assay [2] is HeLa-C3 cells. Nature of the assay: Cell morphology changes during compound treatment (FIG. 5). The protocol:
Various cell morphologies were recorded at the indicated time points. The control cells have normal attached cell morphology through the course of the experiment. Cells have shrinkage and detached morphology when they were treated with either the anticancer drug paclitaxel or other compounds, confirming their ability to kill cancer cells.
In addition to detecting the caspase activation using our HeLa-C3 cells, the cell morphology changes was also examined after the treatment of the tested compounds.

The subject of the next assay is HeLa cells. Nature of the assay: MTT assay, HeLa cell growth inhibition. The conditions noted are these: for IC50: HeLa cells treated for 72 h, MTT; for HeLa cell growth inhibiting effect: HeLa cells, 72 h, IC50 below or near 10. Here is the method: IC50 of four new compounds was measured using MTT assay. MTT powder was dissolved in PBS at a concentration of 5 mg/mL. For MTT assay, 10 μL of MTT solution was added into each well of a 96-well plate. After 2 h incubation at 37° C., 100 μL 10% SDS solution with 0.01 M HCl was added to dissolve the purple crystals. After 24 h incubation, the optical density (OD) readings at 595 nm were measured using a plate reader. Firstly, 2,500 HeLa cells suspended in 100 μL MEM medium were seeded respectively in a 96-well plate. After 24 h incubation, fresh medium that contained various concentrations of each compound were added into the 96-well plate and changed the old medium. The concentrations applied were ranged from 100 μM to 1.5625 μM, which was achieved by doing two-fold dilutions for 6 times. The OD values of the control group at 0 h and 72 h together with the compound treated groups at 72 h from the MTT assay were measured using a plate reader. IC50 is the concentration of a compound inhibiting 50% of the cell growth.
(In general: Tetrazolium assays rely on reduction of a dye to a coloured formazan, in cell work by metabolically active cells.)

The term IC50 denotes the point on the concentration scale where inhibition reaches its midpoint. Low values mean greater potency in that assay, high ones weaker potency in that assay. Turning to `CC(C)=CC[C@H]1C[C@@]23CC4(CCC(C)(C)C[C@]4(C)O)OC2=C(C(=O)c2ccc(O)c(O)c2)C(=O)[C@](CC=C(C)C)(C3=O)C1(C)C` (relative stereo) [Compound 1, Paucinone A], in the assay with HeLa-C3 cells [1], the “Apoptotic effect at 25 μM” value is “+ (“+” means the YFP/CFP emission ratio of compound treated HeLa-C3 cells was below 3 at 72 h.)”, the “Apoptotic effect at 50 μM” value is “+ (“+” means the YFP/CFP emission ratio of compound treated HeLa-C3 cells was below 3 at 72 h.)” and the “Apoptotic effect at 100 μM” value was “+ (“+” means the YFP/CFP emission ratio of compound treated HeLa-C3 cells was below 3 at 72 h.)”. The cell morphology entry with HeLa-C3 cells [2] (25 μM, 24, 48 and 72 h) is given as “cell shrinkage”. Further, in the assay on HeLa cells, the IC50 was 10 ± 0.5 µM and the “HeLa cell growth inhibiting effect” value is reported as “strong HeLa cell growth inhibiting effects”.
Turning to `CC(C)=CC[C@H]1C[C@@]23CC4(CCC(C)(C)C[C@@]4(C)O)OC2=C(C(=O)c2ccc(O)c(O)c2)C(=O)[C@](CC=C(C)C)(C3=O)C1(C)C` (relative stereo) [Compound 2, Paucinone B], in the assay with HeLa-C3 cells [1], the “Apoptotic effect at 25 μM” value is listed as “+ (“+” means the YFP/CFP emission ratio of compound treated HeLa-C3 cells was below 3 at 72 h.)”, the “Apoptotic effect at 50 μM” value was “+ (“+” means the YFP/CFP emission ratio of compound treated HeLa-C3 cells was below 3 at 72 h.)” and the “Apoptotic effect at 100 μM” value is reported as “+ (“+” means the YFP/CFP emission ratio of compound treated HeLa-C3 cells was below 3 at 72 h.)”. For the same compound, in the assay with HeLa-C3 cells [2] (25 μM, 24, 48 and 72 h), the cell morphology entry is “cell shrinkage”. Also, in the assay with HeLa cells, half-maximal inhibition (IC50) was put at 8.2 ± 0.8 µM and the “HeLa cell growth inhibiting effect” value is listed as “strong HeLa cell growth inhibiting effects”.
For `CC(C)=CC[C@H]1C[C@@]23CC4(CCC(C)(C)C[C@]4(C)O)OC2=C(OC(=O)c2ccc(O)c(O)c2)C(=O)[C@](CC=C(C)C)(C3=O)C1(C)C` (relative stereo) [Compound 3, Paucinone C], in the assay with HeLa-C3 cells [1], the “Apoptotic effect at 25 μM” value is on record as “− (“−” means the YFP/CFP emission ratio of compound treated HeLa-C3 cells was above 3 at 72 h.)”, the “Apoptotic effect at 50 μM” value is “+ (“+” means the YFP/CFP emission ratio of compound treated HeLa-C3 cells was below 3 at 72 h.)” and the “Apoptotic effect at 100 μM” value was “+ (“+” means the YFP/CFP emission ratio of compound treated HeLa-C3 cells was below 3 at 72 h.)”. Moreover, in the assay with HeLa-C3 cells [1] (within 72 h at 100 μM and 50 μM), the caspase-3 activation entry is recorded as “could activate caspase-3”. Besides, the cell morphology result in the assay with HeLa-C3 cells [2] (50 μM, 24, 48 and 72 h) was “cell shrinkage”. In the assay with HeLa cells, the IC50 was 24.3 ± 0.6 µM.
As to `C=C1CCCC(C)(C)[C@H]1C[C@H]1C[C@@]23CC(C(C)(C)O)OC2=C(C(=O)c2ccc(O)c(O)c2)C(=O)[C@](CC=C(C)C)(C3=O)C1(C)C` (relative stereo) [Compound 4, Paucinone D], in the assay on HeLa-C3 cells [1], the “Apoptotic effect at 25 μM” value is “+ (“+” means the YFP/CFP emission ratio of compound treated HeLa-C3 cells was below 3 at 72 h.)”, the “Apoptotic effect at 50 μM” value was “+ (“+” means the YFP/CFP emission ratio of compound treated HeLa-C3 cells was below 3 at 72 h.)” and the “Apoptotic effect at 100 μM” value is given as “+ (“+” means the YFP/CFP emission ratio of compound treated HeLa-C3 cells was below 3 at 72 h.)”. Further, the cell morphology result in the assay on HeLa-C3 cells [2] (25 μM, 24, 48 and 72 h) was “cell shrinkage”. In the assay with HeLa cells, the IC50 is 5.8 ± 0.6 µM and the “HeLa cell growth inhibiting effect” value was “strong HeLa cell growth inhibiting effects”.
For the compound `CC(=O)O[C@H]1C(=O)[C@@]2(C)[C@H]([C@H](OC(=O)c3ccccc3)[C@]3(O)C[C@H](OC(=O)[C@H](O)[C@@H](NC(=O)c4ccccc4)c4ccccc4)C(C)=C1C3(C)C)[C@]1(OC(C)=O)CO[C@@H]1C[C@@H]2O` [paclitaxel, reference compound], the cell morphology result in the assay with HeLa-C3 cells [2] (500 nM, positive control) was “typical cell shrinkage morphology”.
